From ChEMBL document CHEMBL1201862, “PubChem BioAssay data set” (2004)
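Protocol summary: plate cells (96-well), add compound at 5 concentrations, incubate 48 h, interpolate endpoints linearly. GI50 marks 50% less growth.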 Calls of active or inactive are those of the source. No stated cut-off is given here; in the data, active = GI50 up to about 1.1 µM and inactive = higher.

Tests used:
Assay in all cases: DTP human tumour cell line panel, 48 h
SK-MEL-5 = tested on: SK-MEL-5
OVCAR-5 = tested on: OVCAR-5
U-251 = tested on: U-251
DU-145 = tested on: DU-145
Malme-3M = tested on: Malme-3M
HT-29 = tested on: HT-29
SNB-19 = tested on: SNB-19
IGROV-1 = tested on: IGROV-1
SF-539 = tested on: SF-539
NCI-H522 = tested on: NCI-H522
ACHN = tested on: ACHN
SN12C = tested on: SN12C
786-0 = tested on: 786-0
SNB-75 = tested on: SNB-75
UACC-257 = tested on: UACC-257
SK-OV-3 = tested on: SK-OV-3
NCI-H226 = tested on: NCI-H226
SR = tested on: SR
HOP-92 = tested on: HOP-92
SK-MEL-28 = tested on: SK-MEL-28

## Nc1cc2c3c(cccc3c1)C(=O)N(c1ccc(OCCN3CCCCC3)cc1)C2=O
SK-MEL-5
  GI50: 15.3 µM (inactive)
OVCAR-5
  GI50: 20.8 µM (inactive)
U-251
  GI50: 22 µM (inactive)
DU-145
  GI50: 16.9 µM (inactive)
Malme-3M
  GI50: 14.5 µM (inactive)
HT-29
  GI50: 10.2 µM (inactive)
SNB-19
  GI50: 18.3 µM (inactive)
IGROV-1
  GI50: 17.6 µM (inactive)
SF-539
  GI50: 14 µM (inactive)
NCI-H522
  GI50: 18.5 µM (inactive)
ACHN
  GI50: 15.9 µM (inactive)
SN12C
  GI50: 15.9 µM (inactive)
786-0
  GI50: 16.9 µM (inactive)
SNB-75
  GI50: 14.6 µM (inactive)
UACC-257
  GI50: 16 µM (inactive)
SK-OV-3
  GI50: 15.1 µM (inactive)
NCI-H226
  GI50: 18.6 µM (inactive)
SR
  GI50: 14 µM (inactive)
HOP-92
  GI50: 14.9 µM (inactive)
SK-MEL-28
  GI50: 22.2 µM (inactive)

## CC(C)(Br)C(=O)N1CCN(C(c2ccccc2)c2ccccc2)CC1
SK-MEL-5
  GI50: 61.4 µM (inactive)
OVCAR-5
  GI50: > 100 µM (inactive)
U-251
  GI50: > 100 µM (inactive)
DU-145
  GI50: 50.6 µM (inactive)
Malme-3M
  GI50: > 100 µM (inactive)
HT-29
  GI50: 39.5 µM (inactive)
SNB-19
  GI50: > 100 µM (inactive)
IGROV-1
  GI50: > 100 µM (inactive)
SF-539
  GI50: > 100 µM (inactive)
NCI-H522
  GI50: 85.7 µM (inactive)
ACHN
  GI50: > 100 µM (inactive)
SN12C
  GI50: 84.9 µM (inactive)
786-0
  GI50: > 100 µM (inactive)
SNB-75
  GI50: > 100 µM (inactive)
UACC-257
  GI50: 41.9 µM (inactive)
SK-OV-3
  GI50: > 100 µM (inactive)
NCI-H226
  GI50: 95.1 µM (inactive)
SR
  GI50: 66.2 µM (inactive)
HOP-92
  GI50: 68.4 µM (inactive)
SK-MEL-28
  GI50: > 100 µM (inactive)

## COc1ccccc1-n1nnc2c(N)nc(N)nc21
SK-MEL-5
  GI50: > 100 µM (inactive)
OVCAR-5
  GI50: > 100 µM (inactive)
U-251
  GI50: > 100 µM (inactive)
DU-145
  GI50: > 100 µM (inactive)
Malme-3M
  GI50: > 100 µM (inactive)
HT-29
  GI50: > 100 µM (inactive)
SNB-19
  GI50: > 100 µM (inactive)
IGROV-1
  GI50: > 100 µM (inactive)
SF-539
  GI50: > 100 µM (inactive)
NCI-H522
  GI50: > 100 µM (inactive)
ACHN
  GI50: > 100 µM (inactive)
SN12C
  GI50: > 100 µM (inactive)
786-0
  GI50: > 100 µM (inactive)
SNB-75
  GI50: > 100 µM (inactive)
UACC-257
  GI50: > 100 µM (inactive)
SK-OV-3
  GI50: > 100 µM (inactive)
NCI-H226
  GI50: > 100 µM (inactive)
SR
  GI50: > 100 µM (inactive)
HOP-92
  GI50: > 100 µM (inactive)
SK-MEL-28
  GI50: > 100 µM (inactive)

## COc1ccc(C2=C(N)c3cc(OC)ccc3C2=O)cc1
SK-MEL-5
  GI50: > 100 µM (inactive)
OVCAR-5
  GI50: > 100 µM (inactive)
U-251
  GI50: > 100 µM (inactive)
DU-145
  GI50: > 100 µM (inactive)
Malme-3M
  GI50: > 100 µM (inactive)
HT-29
  GI50: > 100 µM (inactive)
SNB-19
  GI50: 24.5 µM (inactive)
IGROV-1
  GI50: > 100 µM (inactive)
SF-539
  GI50: > 100 µM (inactive)
NCI-H522
  GI50: > 100 µM (inactive)
ACHN
  GI50: 49.9 µM (inactive)
SN12C
  GI50: > 100 µM (inactive)
786-0
  GI50: > 100 µM (inactive)
SNB-75
  GI50: 16.1 µM (inactive)
UACC-257
  GI50: > 100 µM (inactive)
SK-OV-3
  GI50: > 100 µM (inactive)
NCI-H226
  GI50: > 100 µM (inactive)
SR
  GI50: 23.8 µM (inactive)
HOP-92
  GI50: > 100 µM (inactive)
SK-MEL-28
  GI50: > 100 µM (inactive)

## C=C1C(=O)O[C@H]2[C@@H]3O[C@@](C)(CC/C=C(\C)CCC[C@@H]2C)[C@H](O)C[C@@H]13
SK-MEL-5
  GI50: 2.08 µM (inactive)
OVCAR-5
  GI50: 13.2 µM (inactive)
U-251
  GI50: 13.5 µM (inactive)
DU-145
  GI50: 6.5 µM (inactive)
Malme-3M
  GI50: 6.32 µM (inactive)
HT-29
  GI50: 1.38 µM (inactive)
SNB-19
  GI50: > 10 µM (inactive)
IGROV-1
  GI50: 4.72 µM (inactive)
SF-539
  GI50: 2.14 µM (inactive)
NCI-H522
  GI50: 1.61 µM (inactive)
ACHN
  GI50: 1.98 µM (inactive)
SN12C
  GI50: 2.28 µM (inactive)
786-0
  GI50: 2.75 µM (inactive)
SNB-75
  GI50: 16.4 µM (inactive)
UACC-257
  GI50: 10 µM (inactive)
SK-OV-3
  GI50: 17.6 µM (inactive)
NCI-H226
  GI50: 2.11 µM (inactive)
SR
  GI50: 3.16 µM (inactive)
HOP-92
  GI50: 3.42 µM (inactive)
SK-MEL-28
  GI50: 7.31 µM (inactive)

## CCOC(=O)c1ccc(NC(=O)O/N=C(/Cl)CC)cc1
SK-MEL-5
  GI50: 16 µM (inactive)
OVCAR-5
  GI50: 18.2 µM (inactive)
U-251
  GI50: 17.8 µM (inactive)
DU-145
  GI50: 17.4 µM (inactive)
Malme-3M
  GI50: 4.56 µM (inactive)
HT-29
  GI50: 18.4 µM (inactive)
SNB-19
  GI50: 21.3 µM (inactive)
IGROV-1
  GI50: 18.5 µM (inactive)
SF-539
  GI50: 17.6 µM (inactive)
NCI-H522
  GI50: 2.77 µM (inactive)
ACHN
  GI50: 9.18 µM (inactive)
SN12C
  GI50: 19.9 µM (inactive)
786-0
  GI50: 5.85 µM (inactive)
SNB-75
  GI50: 13.6 µM (inactive)
UACC-257
  GI50: 16.1 µM (inactive)
SK-OV-3
  GI50: 17.9 µM (inactive)
NCI-H226
  GI50: 20.9 µM (inactive)
SR
  GI50: 3.57 µM (inactive)
HOP-92
  GI50: 2.75 µM (inactive)
SK-MEL-28
  GI50: 16.4 µM (inactive)

## COC1CC(CC2CCC(C)C(C(C)C(=O)O)O2)OC2(OC(C)(C3CCC(C)(C4OC(C5OC(O)(CO)C(C)CC5C)CC4C)O3)CC2C)C1C (stereo not given)
SK-MEL-5
  GI50: 0.156 µM (active)
OVCAR-5
  GI50: 8.11 µM (inactive)
U-251
  GI50: 0.0836 µM (active)
DU-145
  GI50: 3.85 µM (inactive)
Malme-3M
  GI50: 0.0923 µM (active)
HT-29
  GI50: 0.183 µM (active)
SNB-19
  GI50: 0.359 µM (active)
IGROV-1
  GI50: 1.56 µM (inactive)
SF-539
  GI50: 0.19 µM (active)
NCI-H522
  GI50: 0.0217 µM (active)
ACHN
  GI50: 0.964 µM (active)
SN12C
  GI50: 0.257 µM (active)
786-0
  GI50: 1.08 µM (active)
SNB-75
  GI50: 0.36 µM (active)
UACC-257
  GI50: 0.0578 µM (active)
SK-OV-3
  GI50: 7.4 µM (inactive)
NCI-H226
  GI50: 1.21 µM (inactive)
SR
  GI50: 0.0634 µM (active)
HOP-92
  GI50: 1.07 µM (active)
SK-MEL-28
  GI50: 1.43 µM (inactive)

## Oc1ccccc1/C=N/c1ccc(Oc2ccc(Cl)cc2)c(Cl)c1
SK-MEL-5
  GI50: 20.8 µM (inactive)
OVCAR-5
  GI50: 26.1 µM (inactive)
U-251
  GI50: 21.2 µM (inactive)
DU-145
  GI50: 81.8 µM (inactive)
Malme-3M
  GI50: 19.5 µM (inactive)
HT-29
  GI50: 19.5 µM (inactive)
SNB-19
  GI50: 17.4 µM (inactive)
IGROV-1
  GI50: 22.7 µM (inactive)
SF-539
  GI50: 20.9 µM (inactive)
NCI-H522
  GI50: 14.4 µM (inactive)
ACHN
  GI50: 30.3 µM (inactive)
SN12C
  GI50: 21.8 µM (inactive)
786-0
  GI50: 26 µM (inactive)
SNB-75
  GI50: 21.1 µM (inactive)
UACC-257
  GI50: 28.6 µM (inactive)
SK-OV-3
  GI50: 29.8 µM (inactive)
NCI-H226
  GI50: 25.2 µM (inactive)
SR
  GI50: 38.2 µM (inactive)
HOP-92
  GI50: 20 µM (inactive)
SK-MEL-28
  GI50: 25 µM (inactive)
